Source: patent US20080039481A1, “Seed Dressing for Soya Bean” (BAYER CROPSCIENCE AG, priority 2004, published 2008)

Tests used:
Phakopsora Pachyrhizi [1] = experiment: Seed dressing field trial, action of fluquinconazole against soya bean rust; type: in vivo; conditions: natural infection (control 75%)
Method: Action of Fluquinconazole against Phakopsora Pachyrhizi Seed Dressing: Fluquinconazole 25 WPC (Wettable Powder) For dressing, the seed was shaken for 1 minute with the seed dressing in a closed plastic bag. The seed was sown in a field (4 plots, plot size in each case 10 m^2, 40 seeds per m^2) and, one day after sowing, artificially irrigated. The natural degree of infection in the control was, on average, 75%. The efficacy is expressed in percent. 0% means an efficacy which corresponds with that of the control, whereas an efficacy of 100% means that no infection is observed.

Phakopsora Pachyrhizi [2] = experiment: Seed dressing field trial, action of prothioconazole against soya bean rust; type: in vivo; conditions: duration 28 days, natural infection (control 75%)
Method: Action of Prothioconazole against Phakopsora Pachyrhizi
Seed Dressing: Prothioconazole
For dressing, the seed was shaken for 1 minute with the seed dressing in a closed plastic bag.
The seed was sown in a field (4 plots, plot size in each case 10 m^2, 40 seeds per m^2) and, one day after sowing, artificially irrigated.
The natural degree of infection in the control was, on average, 75%.
The efficacy is expressed in percent. 0% means an efficacy which corresponds with that of the control, whereas an efficacy of 100% means that no infection is observed.

Measured: Efficacy

O=c1c2cc(F)ccc2nc(-n2cncn2)n1-c1ccc(Cl)cc1Cl [fluquinconazole]
100%: Phakopsora Pachyrhizi [1]; 5 g of fluquinconazole/100 kg of seed, duration 28 days | Phakopsora Pachyrhizi [1]; 50 g of fluquinconazole/100 kg of seed, duration 22 days | Phakopsora Pachyrhizi [1]; 50 g of fluquinconazole/100 kg of seed, duration 33 days | Phakopsora Pachyrhizi [1]; 50 g of fluquinconazole/100 kg of seed, duration 37 days

OC(Cc1ccccc1Cl)(Cn1nc[nH]c1=S)C1(Cl)CC1 (stereo not drawn) [prothioconazole]
100%: Phakopsora Pachyrhizi [2]; 5 g of prothioconazole/100 kg of seed | Phakopsora Pachyrhizi [2]; 10 g of prothioconazole/100 kg of seed
